Species: Rattus norvegicus
Experiment: DrugMatrix - Regimen: Daily Repeat
Format: toxicity, organism-based, Sprague-Dawley
Design: regimen Daily Repeat, gender Male, age 6-8 weeks
Details: in vivo, po, […], route oral GAVAGE; for ABSOLUTE BASOPHIL / ABSOLUTE EOSINOPHIL / ABSOLUTE LYMPHOCYTE / ABSOLUTE MONOCYTE / ABSOLUTE SEGMENTED NEUTROPHIL / BASOPHIL / EOSINOPHIL / ERYTHROCYTE COUNT / HEMATOCRIT / HEMOGLOBIN / LEUKOCYTE COUNT / LYMPHOCYTE / MEAN CORPUSCULAR HEMOGLOBIN / MEAN CORPUSCULAR HEMOGLOBIN CONCENTRATION / MEAN CORPUSCULAR VOLUME / MONOCYTE / NEUTROPHIL / NUCLEATED RED BLOOD CELLS / PLATELET COUNT: tissue Blood; for ALANINE AMINOTRANSFERASE / ALBUMIN / ALKALINE PHOSPHATASE / ASPARTATE AMINOTRANSFERASE / BLOOD UREA NITROGEN / CARBON DIOXIDE / CHLORIDE / CHOLESTEROL / CREATINE PHOSPHOKINASE / CREATININE / GLUCOSE / LACTATE DEHYDROGENASE / LIPASE / PHOSPHORUS / POTASSIUM / SODIUM / TOTAL BILIRUBIN / TOTAL PROTEIN / URIC ACID: tissue Plasma
[1] = 400 mg/kg, dose level Low, time 7 day
[2] = 1175 mg/kg, 72 h, dose level High, time 3 day
[3] = 1175 mg/kg, dose level High, time 7 day

## ClC(Cl)(Cl)Cl [CARBON TETRACHLORIDE]
[1]
  ABSOLUTE BASOPHIL: 0 CELLS/uL
  ABSOLUTE EOSINOPHIL: 0 CELLS/uL
  ABSOLUTE LYMPHOCYTE: 12903.17 CELLS/uL
  ABSOLUTE MONOCYTE: 339.83 CELLS/uL
  ABSOLUTE SEGMENTED NEUTROPHIL: 990.33 CELLS/uL
  BASOPHIL: 0%
  EOSINOPHIL: 0%
  ERYTHROCYTE COUNT: 6.32 x10E6/uL
  HEMATOCRIT: 37.03%
  HEMOGLOBIN: 14.83 G/DL
  LEUKOCYTE COUNT: 14.23 x10E3/uL
  LYMPHOCYTE: 90.33%
  MEAN CORPUSCULAR HEMOGLOBIN: 23.5 pg
  MEAN CORPUSCULAR HEMOGLOBIN CONCENTRATION: 40.08 G/DL
  MEAN CORPUSCULAR VOLUME: 58.68 fL
  MONOCYTE: 2.17%
  NEUTROPHIL: 7.5%
  NUCLEATED RED BLOOD CELLS: 0 /100WBC
  PLATELET COUNT: 869.5 x10E3/uL
  ALANINE AMINOTRANSFERASE: 295.83 u/L
  ALBUMIN: 4.12 G/DL
  ALKALINE PHOSPHATASE: 598 u/L
  ASPARTATE AMINOTRANSFERASE: 469.33 u/L
  BLOOD UREA NITROGEN: 15.17 mg/dL
  CARBON DIOXIDE: 29 mmol/L
  CHLORIDE: 99.67 MEQ/L
  CHOLESTEROL: 34.17 mg/dL
  CREATINE PHOSPHOKINASE: 258.83 u/L
  CREATININE: 0.27 mg/dL
  GLUCOSE: 129 mg/dL
  LACTATE DEHYDROGENASE: 176.83 u/L
  LIPASE: 10 u/L
  PHOSPHORUS: 9.22 mg/dL
  POTASSIUM: 5.35 MEQ/L
  SODIUM: 142.35 MEQ/L
  TOTAL BILIRUBIN: 0.22 mg/dL
  TOTAL PROTEIN: 5.88 G/DL
  URIC ACID: 0.82 mg/dL
[2]
  ABSOLUTE BASOPHIL: 0 CELLS/uL
  ABSOLUTE EOSINOPHIL: 29 CELLS/uL
  ABSOLUTE LYMPHOCYTE: 12136.5 CELLS/uL
  ABSOLUTE MONOCYTE: 331.83 CELLS/uL
  ABSOLUTE SEGMENTED NEUTROPHIL: 869.33 CELLS/uL
  BASOPHIL: 0%
  EOSINOPHIL: 0.33%
  ERYTHROCYTE COUNT: 6.02 x10E6/uL
  HEMATOCRIT: 37.65%
  HEMOGLOBIN: 13.88 G/DL
  LEUKOCYTE COUNT: 13.37 x10E3/uL
  LYMPHOCYTE: 90.67%
  MEAN CORPUSCULAR HEMOGLOBIN: 23.13 pg
  MEAN CORPUSCULAR HEMOGLOBIN CONCENTRATION: 36.9 G/DL
  MEAN CORPUSCULAR VOLUME: 62.75 fL
  MONOCYTE: 2.5%
  NEUTROPHIL: 6.5%
  NUCLEATED RED BLOOD CELLS: 0.17 /100WBC
  PLATELET COUNT: 800.67 x10E3/uL
  ALANINE AMINOTRANSFERASE: 129 u/L
  ALBUMIN: 3.92 G/DL
  ALKALINE PHOSPHATASE: 531.5 u/L
  ASPARTATE AMINOTRANSFERASE: 232.83 u/L
  BLOOD UREA NITROGEN: 19.17 mg/dL
  CARBON DIOXIDE: 31.33 mmol/L
  CHLORIDE: 101.5 MEQ/L
  CHOLESTEROL: 41.67 mg/dL
  CREATINE PHOSPHOKINASE: 258.5 u/L
  CREATININE: 0.28 mg/dL
  GLUCOSE: 144.83 mg/dL
  LACTATE DEHYDROGENASE: 110 u/L
  LIPASE: 10.5 u/L
  PHOSPHORUS: 9.55 mg/dL
  POTASSIUM: 5.46 MEQ/L
  SODIUM: 145.42 MEQ/L
  TOTAL BILIRUBIN: 0.1 mg/dL
  TOTAL PROTEIN: 5.68 G/DL
  URIC ACID: 0.45 mg/dL
[3]
  ABSOLUTE BASOPHIL: 0 CELLS/uL
  ABSOLUTE EOSINOPHIL: 0 CELLS/uL
  ABSOLUTE LYMPHOCYTE: 11238.67 CELLS/uL
  ABSOLUTE MONOCYTE: 252 CELLS/uL
  ABSOLUTE SEGMENTED NEUTROPHIL: 1109.33 CELLS/uL
  BASOPHIL: 0%
  EOSINOPHIL: 0%
  ERYTHROCYTE COUNT: 6.55 x10E6/uL
  HEMATOCRIT: 37.82%
  HEMOGLOBIN: 14.68 G/DL
  LEUKOCYTE COUNT: 12.6 x10E3/uL
  LYMPHOCYTE: 89%
  MEAN CORPUSCULAR HEMOGLOBIN: 22.53 pg
  MEAN CORPUSCULAR HEMOGLOBIN CONCENTRATION: 38.87 G/DL
  MEAN CORPUSCULAR VOLUME: 57.97 fL
  MONOCYTE: 2%
  NEUTROPHIL: 9%
  NUCLEATED RED BLOOD CELLS: 0 /100WBC
  PLATELET COUNT: 761 x10E3/uL
  ALANINE AMINOTRANSFERASE: 302 u/L
  ALBUMIN: 3.77 G/DL
  ALKALINE PHOSPHATASE: 779.83 u/L
  ASPARTATE AMINOTRANSFERASE: 589.83 u/L
  BLOOD UREA NITROGEN: 17.67 mg/dL
  CARBON DIOXIDE: 30.5 mmol/L
  CHLORIDE: 98.83 MEQ/L
  CHOLESTEROL: 26.5 mg/dL
  CREATINE PHOSPHOKINASE: 269.67 u/L
  CREATININE: 0.24 mg/dL
  GLUCOSE: 122.83 mg/dL
  LACTATE DEHYDROGENASE: 182.5 u/L
  LIPASE: 9.17 u/L
  PHOSPHORUS: 9.22 mg/dL
  POTASSIUM: 5.74 MEQ/L
  SODIUM: 142.6 MEQ/L
  TOTAL BILIRUBIN: 0.22 mg/dL
  TOTAL PROTEIN: 5.7 G/DL
  URIC ACID: 0.47 mg/dL
